The text below walks through data of patent US8642259B2, “Method for identifying substances capable of modulating the activity of a target molecule” (Sanofi-Aventis Deutschland GmbH, priority 2002, dated 2014).

One assay concerns the target human GPCR EDG1 (Homo sapiens, UniProt P21453). The assay can be described thus: Growth readout (FUS1-HIS3, turbidity at 630 nm), yeast strain YLJ21 expressing EDG1. The settings on record: 2 mM 3-AT; 23 h at 30° C.; FIG. 3B left-hand graph. In kind it is cell-based.
The target in a further assay is T1, human GPCR EDG5 (Homo sapiens, UniProt O95136).
T1 construct: expressed in transfected cells; host or cells: Saccharomyces cerevisiae strain YLJ21 (endogenous Gpa1), episomal vector p426GPD
T1 sequence (O95136 whole entry): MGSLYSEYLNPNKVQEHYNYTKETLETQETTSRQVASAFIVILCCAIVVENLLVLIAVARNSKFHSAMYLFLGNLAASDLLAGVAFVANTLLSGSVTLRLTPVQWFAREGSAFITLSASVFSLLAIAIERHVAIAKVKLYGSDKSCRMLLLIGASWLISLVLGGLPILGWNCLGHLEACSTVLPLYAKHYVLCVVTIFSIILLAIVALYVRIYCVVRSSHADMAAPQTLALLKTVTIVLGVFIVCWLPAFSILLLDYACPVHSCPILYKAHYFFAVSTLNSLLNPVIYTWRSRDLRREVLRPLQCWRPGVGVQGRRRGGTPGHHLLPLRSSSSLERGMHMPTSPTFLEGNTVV
The assay can be described thus: Growth readout (FUS1-HIS3, turbidity at 630 nm), yeast strain YLJ21 expressing EDG5. The assay is classed as cell-based. Particulars: 2 mM 3-AT; 23 h at 30° C.; FIG. 3B left-hand graph.

In assay [1] the test system is human M1 muscarinic receptor, somatostatin receptor 2 and EDG5.
Experimental: The human GPCRs cloned into vector p426GPD are transformed into the appropriate yeast strain and incubated on SC selection plates without uracil and with 2% glucose as carbon source (SC/Gluc-Ura) at 30° C. for 3 days. The single cell colonies thus obtained are then utilized in order to inoculate 2 ml overnight cultures in SC/Gluc-Ura. The next day, the cells are diluted 1:100 in SC/Gluc-Ura-His pH 6.8. In the case of yeast strains using the FUS1 promoter for reporter gene expression, 2-10 mM 3-aminotriazole (3-AT, Sigma) are additionally added to said medium. In each case 90 μl of the diluted cell suspension are pipetted into a well of a 96-well microtiter plate, which already contains 10 μl of the ligand to be studied. The plates are incubated with or without shaking at 30° C. for 5-24 h. This is followed by adding to each well 50 μl of assay mix. The assay mix consists of 150 μg/ml digitonin (Sigma), 300 μg/ml chlorophenol red β-D-galactopyranoside (CPRG, Roche), 300 mM sodium phosphate buffer pH 6.7. After incubation with or without shaking at 30° C. for 2 h, β-galactosidase activity is measured as absorption at 574 nm in a spectrophotometer (Spectramax Plus, Molecular Devices). The data are analyzed and dose-response curves are drawn using the Graphpad Prism 3.0 computer program. All measurements are averages from triplicate determinations. […]

human GPCR EDG1, sequence (P21453 whole entry): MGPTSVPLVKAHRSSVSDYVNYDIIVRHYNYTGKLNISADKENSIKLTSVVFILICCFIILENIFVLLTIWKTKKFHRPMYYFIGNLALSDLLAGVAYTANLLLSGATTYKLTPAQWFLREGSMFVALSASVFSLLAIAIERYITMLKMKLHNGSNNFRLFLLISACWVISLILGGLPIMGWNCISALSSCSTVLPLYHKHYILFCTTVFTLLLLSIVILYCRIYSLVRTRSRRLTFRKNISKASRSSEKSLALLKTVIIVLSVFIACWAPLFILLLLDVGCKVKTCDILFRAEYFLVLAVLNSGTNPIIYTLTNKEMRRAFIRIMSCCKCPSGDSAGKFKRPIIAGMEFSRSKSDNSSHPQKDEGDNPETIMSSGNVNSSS
Experimental for human GPCR EDG1: (§1) The human GPCRs cloned into vector p426GPD are transformed into the appropriate yeast strain and incubated on SC selection plates without uracil and with 2% glucose as carbon source (SC/Gluc-Ura) at 30° C. for 3 days. The single cell colonies thus obtained are then utilized in order to inoculate 2 ml overnight cultures in SC/Gluc-Ura. The next day, the cells are diluted 1:100 in SC/Gluc-Ura-His pH 6.8. In the case of yeast strains using the FUS1 promoter for reporter gene expression, 2-10 mM 3-aminotriazole (3-AT, Sigma) are additionally added to said medium. In each case 90 μl of the diluted cell suspension are pipetted into a well of a 96-well microtiter plate, which already contains 10 μl of the ligand to be studied. The plates are incubated with or without shaking at 30° C. for 5-24 h. […] All measurements are averages from triplicate determinations. […] The transformed yeasts were then cultivated in 2 ml of SC/Gluc-Ura at 30° C. overnight. The next day, the cultures were diluted 1:100 in SC/Gluc-Ura-His pH 6.8 medium without (FIG. 3A) or with 2 mM 3-AT (FIG. 3B). […] The turbidity resulting from growth of the yeast cells was measured at 630 nm in the photometer (FIGS. 3A and B, in each case left-hand graph).
Experimental for human GPCR EDG5: as §1

Take `CCCCCCCCCCCCC/C=C/[C@@H](O)[C@@H](N)COP(=O)(O)O` [sphingosine 1-phosphate]: the “dose dependence of the measured signal (turbidity at 630 nm)” value on human GPCR EDG1 and at human GPCR EDG5 was “level of the measured signal is dependent on the amount of sphingosine 1-phosphate” throughout. In addition, in assay [1], the “detection of the agonist in the receptor mixture” value was “can also be detected in the mixture”.

Consider somatostatin-14, for which the “detection of the agonist in the receptor mixture” value in assay [1] is recorded as “can also be detected in the mixture”.
